# Laboratory results: publication PMC5218480 (PLoS ONE, 2017)
# System: MV-4-11 cells
# Experiment: Gene expression microarray analysis (Affymetrix PrimeView) and GSEA
# Format: cell-based, human
# Parameters: RFU PODN (11730768_x_at) / Fold change /veh PODN (11730768_x_at) / RFU LINC00158 (11744669_a_at) / Fold change /veh LINC00158 (11744669_a_at) / RFU DUSP10 (11751237_a_at) / Fold change /veh DUSP10 (11751237_a_at) / RFU ID3 (11757404_x_at) / Fold change /veh ID3 (11757404_x_at) / RFU PLEKHG5 (11737974_s_at) / Fold change /veh PLEKHG5 (11737974_s_at) / RFU LRRC4B (11730491_at) / Fold change /veh LRRC4B (11730491_at) / RFU GIMAP4 (11747438_a_at) / Fold change /veh GIMAP4 (11747438_a_at) / RFU KRT8 (11758183_x_at) / Fold change /veh KRT8 (11758183_x_at) / RFU CNN1 (11734310_a_at) / Fold change /veh CNN1 (11734310_a_at) / RFU VPS37D (11726825_at) / Fold change /veh VPS37D (11726825_at) / RFU C10orf10 (11716522_x_at) / Fold change /veh C10orf10 (11716522_x_at) / RFU KIR2DL2 /// KIR2DL4 /// KIR2DL5A /// KIR2DL5B /// KIR2DS1 /// KIR2DS2 /// KIR2DS3 /// KIR2DS4 /// KIR3DL3 /// KIR3DL3 /// KIR3DS1 (11738374_at) / Fold change /veh KIR2DL2 /// KIR2DL4 /// KIR2DL5A /// KIR2DL5B /// KIR2DS1 /// KIR2DS2 /// KIR2DS3 /// KIR2DS4 /// KIR3DL3 /// KIR3DL3 /// KIR3DS1 (11738374_at) / RFU C1QL1 (11718748_at) / Fold change /veh C1QL1 (11718748_at) / RFU TMPRSS4 (11747572_a_at) / Fold change /veh TMPRSS4 (11747572_a_at) / RFU HAMP (11756126_x_at) / Fold change /veh HAMP (11756126_x_at) / RFU RNFT2 (11725882_a_at) / Fold change /veh RNFT2 (11725882_a_at) / RFU NR4A2 (11747474_a_at) / Fold change /veh NR4A2 (11747474_a_at) / RFU ABCC12 (11746883_a_at) / Fold change /veh ABCC12 (11746883_a_at) / RFU TMEM136 (11760407_x_at) / Fold change /veh TMEM136 (11760407_x_at) / RFU CLDN22 /// WWC2 (11732394_at) / Fold change /veh CLDN22 /// WWC2 (11732394_at) / RFU HLA-DPB1 (11760878_x_at) / Fold change /veh HLA-DPB1 (11760878_x_at) / RFU SPINT1 (11716480_a_at) / Fold change /veh SPINT1 (11716480_a_at) / RFU GAP43 (11754022_s_at) / Fold change /veh GAP43 (11754022_s_at) / RFU A4GNT (11735810_at) / Fold change /veh A4GNT (11735810_at) / RFU PRB3 (11715151_x_at) / Fold change /veh PRB3 (11715151_x_at) / RFU TUBB4B (11761932_at) / Fold change /veh TUBB4B (11761932_at) / RFU CAPN14 (11732068_a_at) / Fold change /veh CAPN14 (11732068_a_at) / RFU TMCC2 (11721928_a_at) / Fold change /veh TMCC2 (11721928_a_at) / RFU IRGQ (11745062_a_at) / Fold change /veh IRGQ (11745062_a_at) / RFU FAM174B (11720279_a_at) / Fold change /veh FAM174B (11720279_a_at) / RFU TMPRSS4 (11748680_a_at) / Fold change /veh TMPRSS4 (11748680_a_at) / RFU FAM212B (11763350_a_at) / Fold change /veh FAM212B (11763350_a_at) / RFU PLEKHG5 (11743358_a_at) / Fold change /veh PLEKHG5 (11743358_a_at) / RFU ZSCAN30 (11745921_a_at) / Fold change /veh ZSCAN30 (11745921_a_at) / RFU CMKLR1 (11741424_a_at) / Fold change /veh CMKLR1 (11741424_a_at) / RFU LOC101060620 /// MAPK8IP1 (11723275_at) / Fold change /veh LOC101060620 /// MAPK8IP1 (11723275_at) / RFU SPTSSB (11747773_x_at) / Fold change /veh SPTSSB (11747773_x_at) / RFU PRSS12 (11739890_at) / Fold change /veh PRSS12 (11739890_at) / RFU BIN1 (11741810_x_at) / Fold change /veh BIN1 (11741810_x_at) / RFU WNT11 (11732464_a_at) / Fold change /veh WNT11 (11732464_a_at) / RFU C10orf10 (11716521_a_at) / Fold change /veh C10orf10 (11716521_a_at) / RFU C5orf56 (11738089_at) / Fold change /veh C5orf56 (11738089_at) / RFU CYB561 (11721691_x_at) / Fold change /veh CYB561 (11721691_x_at) / RFU ANKRD19P (11752326_a_at) / Fold change /veh ANKRD19P (11752326_a_at) / RFU OR2T12 /// OR2T33 /// OR2T8 (11738714_s_at) / Fold change /veh OR2T12 /// OR2T33 /// OR2T8 (11738714_s_at) / RFU VCAN (11748164_a_at) / Fold change /veh VCAN (11748164_a_at) / RFU JSRP1 (11732532_at) / Fold change /veh JSRP1 (11732532_at) / RFU KRTAP10-11 (11738290_x_at) / Fold change /veh KRTAP10-11 (11738290_x_at) / RFU MYO3A (11730013_a_at) / Fold change /veh MYO3A (11730013_a_at) / RFU EBF3 (11725865_a_at) / Fold change /veh EBF3 (11725865_a_at) / RFU CAMK2N1 (11719241_x_at) / Fold change /veh CAMK2N1 (11719241_x_at) / RFU C5orf56 (11738088_a_at) / Fold change /veh C5orf56 (11738088_a_at) / RFU OLFML3 (11715873_a_at) / Fold change /veh OLFML3 (11715873_a_at) / RFU LOC100653217 /// NTM (11731650_a_at) / Fold change /veh LOC100653217 /// NTM (11731650_a_at) / RFU MAPK11 (11762145_a_at) / Fold change /veh MAPK11 (11762145_a_at) / RFU FIZ1 (11724087_x_at) / Fold change /veh FIZ1 (11724087_x_at) / RFU OASL (11726364_x_at) / Fold change /veh OASL (11726364_x_at) / RFU SOX15 (11748057_x_at) / Fold change /veh SOX15 (11748057_x_at) / RFU CD79A (11719716_a_at) / Fold change /veh CD79A (11719716_a_at) / RFU HIST1H1D (11736915_at) / Fold change /veh HIST1H1D (11736915_at) / RFU CASKIN2 (11723855_a_at) / Fold change /veh CASKIN2 (11723855_a_at) / RFU LOC730098 (11760151_x_at) / Fold change /veh LOC730098 (11760151_x_at) / RFU OR4N2 (11742367_at) / Fold change /veh OR4N2 (11742367_at) / RFU PRRT2 (11749266_a_at) / Fold change /veh PRRT2 (11749266_a_at) / RFU SNX32 (11753110_a_at) / Fold change /veh SNX32 (11753110_a_at) / RFU CDHR5 (11726645_a_at) / Fold change /veh CDHR5 (11726645_a_at) / RFU RCAN1 (11760418_a_at) / Fold change /veh RCAN1 (11760418_a_at) / RFU FAM167A (11723789_a_at) / Fold change /veh FAM167A (11723789_a_at) / RFU FAM26E (11764081_at) / Fold change /veh FAM26E (11764081_at) / RFU ISYNA1 (11749810_s_at) / Fold change /veh ISYNA1 (11749810_s_at) / RFU ACY1 (11761880_at) / Fold change /veh ACY1 (11761880_at) / RFU 11764098_at / Fold change /veh 11764098_at / RFU SAMD14 (11745864_x_at) / Fold change /veh SAMD14 (11745864_x_at) / RFU NPB (11741838_a_at) / Fold change /veh NPB (11741838_a_at) / RFU TMPRSS6 (11731388_a_at) / Fold change /veh TMPRSS6 (11731388_a_at) / RFU KRTAP10-2 (11738614_at) / Fold change /veh KRTAP10-2 (11738614_at) / RFU ARHGAP8 /// PRR5-ARHGAP8 (11727945_x_at) / Fold change /veh ARHGAP8 /// PRR5-ARHGAP8 (11727945_x_at) / RFU KRTAP5-7 /// NADSYN1 (11734609_at) / Fold change /veh KRTAP5-7 /// NADSYN1 (11734609_at) / RFU RASL12 (11751679_a_at) / Fold change /veh RASL12 (11751679_a_at) / RFU CDKN2B (11736163_a_at) / Fold change /veh CDKN2B (11736163_a_at) / RFU PRF1 (11729649_at) / Fold change /veh PRF1 (11729649_at) / RFU, ZNF638 /// ZNF638-IT1 / Fold change vs veh, ZNF638 /// ZNF638-IT1 / RFU, PANK3 / Fold change vs veh, PANK3 / RFU, SH3YL1 / Fold change vs veh, SH3YL1 / RFU, ZEB2 / Fold change vs veh, ZEB2 / RFU, NRIP1 / Fold change vs veh, NRIP1 / RFU, PTTG1IP / Fold change vs veh, PTTG1IP / RFU, CAPN2 / Fold change vs veh, CAPN2 / RFU, MED14 / Fold change vs veh, MED14 / RFU, SNORA58 / Fold change vs veh, SNORA58 / RFU, C1orf63 / Fold change vs veh, C1orf63 / RFU, LRRFIP1 / Fold change vs veh, LRRFIP1 / RFU, NDUFAF7 / Fold change vs veh, NDUFAF7 / RFU, SLC12A2 / Fold change vs veh, SLC12A2 / RFU, IBTK / Fold change vs veh, IBTK / RFU, ESF1 / Fold change vs veh, ESF1 / Fold change vs veh, TMEM50B / RFU, TAOK1 / Fold change vs veh, TAOK1 / RFU, ACBD3 / Fold change vs veh, ACBD3 / RFU, TMA16 / Fold change vs veh, TMA16 / RFU, RWDD3 / Fold change vs veh, RWDD3 / RFU, BCAT1 / Fold change vs veh, BCAT1 / RFU, EDEM3 / Fold change vs veh, EDEM3 / RFU, TMEM33 / Fold change vs veh, TMEM33 / RFU, WDR75 / Fold change vs veh, WDR75 / RFU, AHCTF1 / Fold change vs veh, AHCTF1 / RFU, TFRC / Fold change vs veh, TFRC / RFU, ZDHHC17 / Fold change vs veh, ZDHHC17 / RFU, NOM1 / Fold change vs veh, NOM1 / RFU, ARL8B / Fold change vs veh, ARL8B / RFU, ZBTB11 / Fold change vs veh, ZBTB11 / RFU, TAMM41 / Fold change vs veh, TAMM41 / RFU, KIAA1704 /// LOC100996395 / Fold change vs veh, KIAA1704 /// LOC100996395 / RFU, ING1 / Fold change vs veh, ING1 / RFU, TRMT61B / Fold change vs veh, TRMT61B / RFU, FUBP3 / Fold change vs veh, FUBP3 / RFU, TP53 / Fold change vs veh, TP53 / RFU, TNKS2 / Fold change vs veh, TNKS2 / RFU, ZFP14 / Fold change vs veh, ZFP14 / RFU, ACTR2 / Fold change vs veh, ACTR2 / RFU, PPP3R1 / Fold change vs veh, PPP3R1 / RFU, PIK3R1 / Fold change vs veh, PIK3R1 / RFU, HNRNPA1 / Fold change vs veh, HNRNPA1 / RFU, RNF170 / Fold change vs veh, RNF170 / RFU, ZNF28 / Fold change vs veh, ZNF28 / RFU, RNGTT / Fold change vs veh, RNGTT / RFU, OGT / Fold change vs veh, OGT / RFU, BRD1 / Fold change vs veh, BRD1 / RFU, MARS / Fold change vs veh, MARS / RFU, ZNF655 / Fold change vs veh, ZNF655 / RFU, FAHD1 / Fold change vs veh, FAHD1 / RFU, BDP1 / Fold change vs veh, BDP1 / RFU, LRRCC1 / Fold change vs veh, LRRCC1 / RFU, ARID1A / Fold change vs veh, ARID1A / RFU, ZNF146 / Fold change vs veh, ZNF146 / RFU, ZNF330 / Fold change vs veh, ZNF330 / RFU, GPN3 / Fold change vs veh, GPN3 / RFU, C9orf123 / Fold change vs veh, C9orf123 / RFU, N4BP2L2 / Fold change vs veh, N4BP2L2 / RFU, ARFIP1 / Fold change vs veh, ARFIP1 / RFU, FAM179B / Fold change vs veh, FAM179B / RFU, BCL10 / Fold change vs veh, BCL10 / RFU, UHRF1BP1L / Fold change vs veh, UHRF1BP1L / RFU, BET1 / Fold change vs veh, BET1 / RFU, CNOT2 / Fold change vs veh, CNOT2 / RFU, ZNF268 / Fold change vs veh, ZNF268 / Fold change vs veh, ZNF507 / RFU, DGCR2 / Fold change vs veh, DGCR2 / RFU, WDSUB1 / Fold change vs veh, WDSUB1 / Fold change vs veh, HSP90B1 /// MIR3652 / RFU, ADSS / Fold change vs veh, ADSS / RFU, GK / Fold change vs veh, GK / RFU, ZNF148 / Fold change vs veh, ZNF148 / RFU, TAF9 / Fold change vs veh, TAF9 / RFU, SLC1A5 / Fold change vs veh, SLC1A5 / RFU, SLMO2 / Fold change vs veh, SLMO2 / RFU, ABCC4 / Fold change vs veh, ABCC4 / RFU, LOC101060439 /// RAP1B / Fold change vs veh, LOC101060439 /// RAP1B / RFU, RFX7 / Fold change vs veh, RFX7 / RFU, GTPBP10 / Fold change vs veh, GTPBP10 / RFU, CNEP1R1 / Fold change vs veh, CNEP1R1 / RFU, BIVM-ERCC5 /// ERCC5 / Fold change vs veh, BIVM-ERCC5 /// ERCC5 / RFU, ILF3 / Fold change vs veh, ILF3 / RFU 11762660_at / Fold change /veh 11762660_at / RFU VCAN (11757783_s_at) / Fold change /veh VCAN (11757783_s_at) / RFU DDX43 (11728927_at) / Fold change /veh DDX43 (11728927_at) / RFU KRT8 (11758188_x_at) / Fold change /veh KRT8 (11758188_x_at) / RFU NKD1 (11759106_at) / Fold change /veh NKD1 (11759106_at) / RFU SRD5A1 (11742802_a_at) / Fold change /veh SRD5A1 (11742802_a_at) / RFU TPSAB1 /// TPSB2 (11721975_s_at) / Fold change /veh TPSAB1 /// TPSB2 (11721975_s_at) / RFU GSTM3 (11746129_a_at) / Fold change /veh GSTM3 (11746129_a_at) / RFU IL23R (11737362_x_at) / Fold change /veh IL23R (11737362_x_at) / RFU TMEM51 (11727254_a_at) / Fold change /veh TMEM51 (11727254_a_at) / RFU PIWIL2 (11732686_x_at) / Fold change /veh PIWIL2 (11732686_x_at) / RFU ORM1 (11744905_x_at) / Fold change /veh ORM1 (11744905_x_at) / RFU CCDC152 (11743942_at) / Fold change /veh CCDC152 (11743942_at) / RFU ECM1 (11717891_a_at) / Fold change /veh ECM1 (11717891_a_at) / RFU IL23R (11748794_a_at) / Fold change /veh IL23R (11748794_a_at) / RFU TNFAIP8L3 (11732012_x_at) / Fold change /veh TNFAIP8L3 (11732012_x_at) / RFU MBOAT4 (11741988_at) / Fold change /veh MBOAT4 (11741988_at) / RFU 11764193_at / Fold change /veh 11764193_at / RFU TMEM53 (11763286_at) / Fold change /veh TMEM53 (11763286_at) / RFU MAGEB2 (11727129_at) / Fold change /veh MAGEB2 (11727129_at) / RFU TMEM200A (11744735_a_at) / Fold change /veh TMEM200A (11744735_a_at) / RFU CCDC152 (11751479_a_at) / Fold change /veh CCDC152 (11751479_a_at) / RFU FAM211A (11726209_a_at) / Fold change /veh FAM211A (11726209_a_at) / RFU RGS16 (11746705_a_at) / Fold change /veh RGS16 (11746705_a_at) / RFU VCAN (11755009_s_at) / Fold change /veh VCAN (11755009_s_at) / RFU RHOB (11743442_s_at) / Fold change /veh RHOB (11743442_s_at) / RFU RGS16 (11720943_a_at) / Fold change /veh RGS16 (11720943_a_at) / RFU RGS16 (11720944_at) / Fold change /veh RGS16 (11720944_at) / RFU, VPS4B / Fold change vs veh, VPS4B / RFU, CREB1 / Fold change vs veh, CREB1 / RFU, DNAJC13 / Fold change vs veh, DNAJC13 / RFU, GNAQ / Fold change vs veh, GNAQ / RFU, CDK5R1 / Fold change vs veh, CDK5R1 / RFU, ZRANB3 / Fold change vs veh, ZRANB3 / RFU, CUL4A / Fold change vs veh, CUL4A / RFU, CCNY / Fold change vs veh, CCNY / RFU, UFL1 / Fold change vs veh, UFL1 / RFU, COG3 / Fold change vs veh, COG3 / RFU, DIAPH2 / Fold change vs veh, DIAPH2 / RFU, SKA2 / Fold change vs veh, SKA2 / RFU, AFF3 / Fold change vs veh, AFF3 / RFU, LMF1 / Fold change vs veh, LMF1 / RFU, IPO11 / Fold change vs veh, IPO11 / RFU, DFFB / Fold change vs veh, DFFB / RFU, FOXP1 / Fold change vs veh, FOXP1 / RFU, CARD8 / Fold change vs veh, CARD8 / RFU, STRN3 / Fold change vs veh, STRN3 / RFU, ADK / Fold change vs veh, ADK / RFU, RASSF2 / Fold change vs veh, RASSF2 / RFU, WIPF1 / Fold change vs veh, WIPF1 / RFU, LARP1B / Fold change vs veh, LARP1B / RFU, RASA1 / Fold change vs veh, RASA1 / RFU, RB1 / Fold change vs veh, RB1 / RFU, PPFIA1 / Fold change vs veh, PPFIA1 / RFU, MAT2A / Fold change vs veh, MAT2A / RFU, CCT5 / Fold change vs veh, CCT5 / RFU, WDR92 / Fold change vs veh, WDR92 / RFU, CUX1 / Fold change vs veh, CUX1 / RFU, TTC7A / Fold change vs veh, TTC7A / RFU, TMEM135 / Fold change vs veh, TMEM135 / RFU, DEPTOR / Fold change vs veh, DEPTOR / RFU, CPM / Fold change vs veh, CPM / RFU, DNAJB6 / Fold change vs veh, DNAJB6 / RFU, CACNA2D3 / Fold change vs veh, CACNA2D3 / RFU, DTX4 / Fold change vs veh, DTX4 / RFU, TFCP2 / Fold change vs veh, TFCP2 / RFU, GMCL1 /// GMCL1P1 / Fold change vs veh, GMCL1 /// GMCL1P1 / RFU, AEBP2 / Fold change vs veh, AEBP2 / RFU, SNHG1 /// SNORD22 /// SNORD25 /// SNORD26 /// SNORD27 /// SNORD28 /// SNORD29 /// SNORD31 / Fold change vs veh, SNHG1 /// SNORD22 /// SNORD25 /// SNORD26 /// SNORD27 /// SNORD28 /// SNORD29 /// SNORD31 / Fold change (Aza/veh), C12orf56 (ProbeSet 11735607_a_at) / Fold change (ACY-1035/veh), C12orf56 (ProbeSet 11735607_a_at) / Fold change (Aza/veh), FGFR1OP (ProbeSet 11751329_s_at) / Fold change (ACY-1035/veh), FGFR1OP (ProbeSet 11751329_s_at) / Fold change (Aza/veh), VPS36 (ProbeSet 11739960_a_at) / Fold change (ACY-1035/veh), VPS36 (ProbeSet 11739960_a_at) / RFU SYPL1 (11715823_x_at) / Fold change /veh SYPL1 (11715823_x_at) / RFU IGFBP7 (11715501_s_at) / Fold change /veh IGFBP7 (11715501_s_at) / RFU REEP3 (11722064_at) / Fold change /veh REEP3 (11722064_at) / RFU IGLL1 (11728026_x_at) / Fold change /veh IGLL1 (11728026_x_at): dose or concentration left out as unconfirmed
# Settings: ProbeSet 11730501_a_at; LIST D
compound,measurement,value
Nc1ncn([C@@H]2O[C@H](CO)[C@@H](O)[C@H]2O)c(=O)n1 [azacitidine],"RFU, CACNA2D3",122.12 RFU
